Test results taken from ChEMBL document CHEMBL1909046, “DrugMatrix in vitro pharmacology data”.

Key:
[1] = DRUGMATRIX: beta-Lactamase enzyme inhibition (substrate: Nitrocefin); design: species or system Bacillus cereus; conditions: Not Active = under 50% inhibition at 10 µM
[2] = DRUGMATRIX: Glutamate, NMDA, Agonism radioligand binding (ligand: [3H] CGP-39653); type: cell membranes, Rattus norvegicus, Wistar, Cerebral cortex, Membrane; conditions: Not Active = under 50% inhibition at 10 µM
[3] = DRUGMATRIX: Phorbol Ester radioligand binding (ligand: [3H] PDBu); type: cell membranes, Mus musculus, ICR, Brain, Membrane; conditions: Not Active = under 50% inhibition at 10 µM
[4] = DRUGMATRIX: Phosphodiesterase PDE4 enzyme inhibition (substrate: [3H]cAMP + cAMP); conditions: u-937; Not Active = under 50% inhibition at 10 µM
Caspase-1 = target: T1, Caspase-1 (Homo sapiens, UniProt P29466); design: species or system Escherichia coli;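 note: Caspase-1 enzyme inhibition assay with a peptide substrate; in other assays of this panel Not Active means under 50% inhibition at 10 µM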
T1 sequence (P29466 whole entry): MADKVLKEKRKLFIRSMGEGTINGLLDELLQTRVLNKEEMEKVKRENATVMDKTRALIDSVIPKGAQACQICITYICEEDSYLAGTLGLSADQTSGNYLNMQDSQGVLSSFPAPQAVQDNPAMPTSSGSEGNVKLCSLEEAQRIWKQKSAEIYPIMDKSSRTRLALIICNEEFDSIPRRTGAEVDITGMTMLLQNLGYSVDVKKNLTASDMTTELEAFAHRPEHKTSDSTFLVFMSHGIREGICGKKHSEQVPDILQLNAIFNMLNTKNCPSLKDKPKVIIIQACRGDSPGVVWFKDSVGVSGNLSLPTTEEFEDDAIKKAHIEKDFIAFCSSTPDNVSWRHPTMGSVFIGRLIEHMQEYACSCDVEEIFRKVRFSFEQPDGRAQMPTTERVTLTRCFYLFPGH

[5] = target: Matrix metalloproteinase-9 (Homo sapiens, UniProt P14780); test: biochemical; type: cell-based;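 note: inhibition of isolated MMP-9 enzyme activity toward a synthetic peptide substrate, from the DrugMatrix protease screening panel; in other assays of this panel Not Active means under 50% inhibition at 10 µM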
Matrix metalloproteinase-9, sequence (P14780 whole entry): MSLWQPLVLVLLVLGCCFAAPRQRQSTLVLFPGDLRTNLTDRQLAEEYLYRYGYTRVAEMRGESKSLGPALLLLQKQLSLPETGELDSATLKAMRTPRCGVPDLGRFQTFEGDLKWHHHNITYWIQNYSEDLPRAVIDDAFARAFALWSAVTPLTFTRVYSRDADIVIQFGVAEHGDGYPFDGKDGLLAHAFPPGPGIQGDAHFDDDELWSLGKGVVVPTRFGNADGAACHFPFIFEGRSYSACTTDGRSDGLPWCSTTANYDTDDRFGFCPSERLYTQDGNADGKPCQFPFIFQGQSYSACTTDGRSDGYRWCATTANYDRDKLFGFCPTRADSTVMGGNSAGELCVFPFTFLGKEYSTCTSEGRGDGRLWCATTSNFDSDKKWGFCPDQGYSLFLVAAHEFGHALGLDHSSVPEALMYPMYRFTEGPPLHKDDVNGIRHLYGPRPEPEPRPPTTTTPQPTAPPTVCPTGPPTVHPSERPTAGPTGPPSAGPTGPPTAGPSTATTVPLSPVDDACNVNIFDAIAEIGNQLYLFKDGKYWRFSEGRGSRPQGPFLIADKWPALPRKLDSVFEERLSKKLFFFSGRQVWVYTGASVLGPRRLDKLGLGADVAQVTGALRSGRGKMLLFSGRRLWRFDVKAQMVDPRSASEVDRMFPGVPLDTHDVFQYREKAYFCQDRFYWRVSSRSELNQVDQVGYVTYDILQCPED

[6] = DRUGMATRIX: Purinergic P2X radioligand binding (ligand: [3H] alpha, beta-Methylene-ATP); type: cell membranes, Oryctolagus cuniculus, New Zealand albino, Urinary bladder, Membrane; conditions: Not Active = under 50% inhibition at 10 µM
Cytochrome P450 1A2 = target: T2, Cytochrome P450 1A2 (Homo sapiens, UniProt P05177); conditions: bti-tn-5b1-4; note: in other assays of this panel Not Active means under 50% inhibition at 10 µM
T2 sequence (P05177 whole entry): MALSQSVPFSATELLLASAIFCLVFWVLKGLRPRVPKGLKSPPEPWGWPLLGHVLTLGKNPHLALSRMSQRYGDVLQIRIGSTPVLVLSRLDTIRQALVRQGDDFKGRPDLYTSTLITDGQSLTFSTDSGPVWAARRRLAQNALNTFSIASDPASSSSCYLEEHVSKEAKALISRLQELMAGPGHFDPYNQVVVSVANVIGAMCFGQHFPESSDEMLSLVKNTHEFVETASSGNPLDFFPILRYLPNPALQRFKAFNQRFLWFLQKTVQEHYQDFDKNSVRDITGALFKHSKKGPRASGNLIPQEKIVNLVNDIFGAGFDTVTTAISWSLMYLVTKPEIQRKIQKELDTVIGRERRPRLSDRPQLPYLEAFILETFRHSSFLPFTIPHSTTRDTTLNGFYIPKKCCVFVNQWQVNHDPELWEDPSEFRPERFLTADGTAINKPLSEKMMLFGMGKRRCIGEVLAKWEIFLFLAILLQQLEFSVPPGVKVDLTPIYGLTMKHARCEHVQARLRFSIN

Estrogen receptor = target: T3, Estrogen receptor (Homo sapiens, UniProt P03372); conditions: sf9; note: in other assays of this panel Not Active means under 50% inhibition at 10 µM
T3 sequence (P03372 whole entry): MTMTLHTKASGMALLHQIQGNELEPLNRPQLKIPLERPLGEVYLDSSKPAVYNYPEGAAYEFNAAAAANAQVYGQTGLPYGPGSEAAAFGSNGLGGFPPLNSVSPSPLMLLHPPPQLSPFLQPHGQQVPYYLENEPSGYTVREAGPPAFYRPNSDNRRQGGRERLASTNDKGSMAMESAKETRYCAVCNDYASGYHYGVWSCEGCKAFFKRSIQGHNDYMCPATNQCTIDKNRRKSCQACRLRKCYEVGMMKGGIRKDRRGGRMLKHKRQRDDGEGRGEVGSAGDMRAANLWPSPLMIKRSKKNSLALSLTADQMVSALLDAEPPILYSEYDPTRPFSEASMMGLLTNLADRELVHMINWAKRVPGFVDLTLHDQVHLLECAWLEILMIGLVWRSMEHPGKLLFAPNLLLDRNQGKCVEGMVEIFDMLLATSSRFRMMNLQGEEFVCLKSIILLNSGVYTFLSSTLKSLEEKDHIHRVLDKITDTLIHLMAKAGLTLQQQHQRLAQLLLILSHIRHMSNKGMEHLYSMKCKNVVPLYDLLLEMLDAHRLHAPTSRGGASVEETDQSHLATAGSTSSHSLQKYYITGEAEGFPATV

INSULIN HUMAN
Not Active: IC50 [1] | Ki [1] | IC50 [2] | Ki [2] | IC50 [3] | Ki [3] | IC50 [4] | Ki [4] | IC50 (Caspase-1) | Ki (Caspase-1) | IC50 [5] | Ki [5] | IC50 [6] | Ki [6] | IC50 (Cytochrome P450 1A2) | Ki (Cytochrome P450 1A2) | IC50 (Estrogen receptor) | Ki (Estrogen receptor)

POLYVINYL ALCOHOL
Not Active: IC50 [1] | Ki [1] | IC50 [2] | Ki [2] | IC50 [3] | Ki [3] | IC50 [4] | Ki [4] | IC50 (Caspase-1) | Ki (Caspase-1) | IC50 [5] | Ki [5] | IC50 [6] | Ki [6] | IC50 (Cytochrome P450 1A2) | Ki (Cytochrome P450 1A2) | IC50 (Estrogen receptor) | Ki (Estrogen receptor)
